Source: patent US20220323372A1, “COMPOSITION FOR IMPROVING LIVER FUNCTION” (NITTO FUJI FLOUR MILLING CO., LTD., priority 2019, published 2022)

Key:
[1] = test system: Non-alcoholic steatohepatitis model mice (C57BL/6NASH mice); assay: Weight gain in hepatitis model mice (Test Example 2); type: in vivo; settings: Resveratrol group (group R): feed blended with 0.4 mass % of resveratrol, ad libitum
[2] = test system: Non-alcoholic steatohepatitis model mice (C57BL/6NASH mice); assay: ALT value in plasma (Test Example 3); type: in vivo; settings: group R: feed with 0.4 mass % of resveratrol; week 0 to week 4; vs control group
Excerpt: (§1) Non-alcoholic steatohepatitis model mice (Japan Charles River Co., Ltd., C57BL/6NASH mice, male) were purchased at the age of six weeks, acclimated for two days, and reared six per cage. The mice were reared in a constant temperature/constant humidity room maintained on a 12-hour light-dark cycle (light: 8 a.m. to 8 p.m.). After the acclimation phase, the feeds shown below were fed ad libitum in accordance with the test group. • Control group (group C): control feed not blended with test substance • Resveratrol group (group R): feed blended with 0.4 mass % of resveratrol (Tokyo Chemical Industry Co., Ltd.) • ARs high dose group (group AH): feed blended with 0.9 mass % of ARs • ARs low dose group (group AL): feed blended with 0.3 mass % of ARs The body weight was measured once a day during the test phase. Blood samples were also drawn once a week. Blood was drawn from the caudal vein of the mice, and plasma was obtained. The plasma was stored at −80° C. until being used in measurement. Also, after the body weight was measured on the final day of the test, blood was drawn under anesthesia by diethyl ether. The liver was removed immediately after sacrifice, weighed, and frozen by dry ice. […] The aspartate aminotransferase (AST) value and alanine aminotransferase (ALT) value in the plasma, which are general indicators of liver function, were measured. […]

[3] = test system: Non-alcoholic steatohepatitis model mice (C57BL/6NASH mice); assay: Triglyceride level in liver tissue (Test Example 4); type: in vivo; settings: group R: feed with 0.4 mass % of resveratrol; control group 130 mg/g
Excerpt: Non-alcoholic steatohepatitis model mice (Japan Charles River Co., Ltd., C57BL/6NASH mice, male) were purchased at the age of six weeks, acclimated for two days, and reared six per cage. The mice were reared in a constant temperature/constant humidity room maintained on a 12-hour light-dark cycle (light: 8 a.m. to 8 p.m.). After the acclimation phase, the feeds shown below were fed ad libitum in accordance with the test group. • Control group (group C): control feed not blended with test substance • Resveratrol group (group R): feed blended with 0.4 mass % of resveratrol (Tokyo Chemical Industry Co., Ltd.) • ARs high dose group (group AH): feed blended with 0.9 mass % of ARs • ARs low dose group (group AL): feed blended with 0.3 mass % of ARs The body weight was measured once a day during the test phase. Blood samples were also drawn once a week. Blood was drawn from the caudal vein of the mice, and plasma was obtained. The plasma was stored at −80° C. until being used in measurement. Also, after the body weight was measured on the final day of the test, blood was drawn under anesthesia by diethyl ether. The liver was removed immediately after sacrifice, weighed, and frozen by dry ice. […] A quantity of 0.5 mL of normal saline was added to the recovered supernatant and mixed for several seconds. […] The resultant mixture served as a sample, and the triglyceride level was measured. […]

[4] = test system: intracellular mitochondria number of liver tissue; assay: Intracellular mitochondria number of liver tissue, weight ratio of mitochondrial DNA to genomic DNA (Test Example 8); type: in vivo, mice; settings: group R: feed with 0.4 mass % of resveratrol; vs control group
Method: In this test example, the intracellular mitochondria number of the liver tissue was examined. Specifically, the intracellular mitochondria number of the liver tissue was evaluated by comparing the weight ratio of mitochondrial DNA to genomic DNA, measured by quantitative PCR as follows. DNA was extracted from liver tissue using a “NucleoSpin (registered trademark) Tissue kit (manufactured by Takara Bio Inc.)” according to the company's instructions. Each DNA copy number was quantified using a “Mouse Feeder Cell Quantification Kit (manufactured by Takara Bio Inc.)” according to the company's instructions. Primers having the following sequences were used. The PCR reaction was carried out under the following conditions. (95° C.,30 seconds→95° C.,5 seconds→60° C.,30 seconds)×40 cycles→95° C.,60 seconds For the weight ratio of measured mitochondrial DNA to genomic DNA, the relative values of each group were compared, taking the control group (group C) as 100%.

[5] = test system: Non-alcoholic steatohepatitis model mice (C57BL/6NASH mice); assay: AST value in plasma (Test Example 3); type: in vivo; settings: group R: feed with 0.4 mass % of resveratrol; week 0 to week 4; vs control group
Excerpt: as §1

[6] = test system: Non-alcoholic steatohepatitis model mice (C57BL/6NASH mice); assay: Pathology evaluation of liver tissue by HE stain (Test Example 5); type: in vivo; settings: group R: feed with 0.4 mass % of resveratrol; vs control group
Excerpt: Non-alcoholic steatohepatitis model mice (Japan Charles River Co., Ltd., C57BL/6NASH mice, male) were purchased at the age of six weeks, acclimated for two days, and reared six per cage. The mice were reared in a constant temperature/constant humidity room maintained on a 12-hour light-dark cycle (light: 8 a.m. to 8 p.m.). After the acclimation phase, the feeds shown below were fed ad libitum in accordance with the test group. • Control group (group C): control feed not blended with test substance • Resveratrol group (group R): feed blended with 0.4 mass % of resveratrol (Tokyo Chemical Industry Co., Ltd.) • ARs high dose group (group AH): feed blended with 0.9 mass % of ARs • ARs low dose group (group AL): feed blended with 0.3 mass % of ARs The body weight was measured once a day during the test phase. Blood samples were also drawn once a week. Blood was drawn from the caudal vein of the mice, and plasma was obtained. The plasma was stored at −80° C. until being used in measurement. Also, after the body weight was measured on the final day of the test, blood was drawn under anesthesia by diethyl ether. The liver was removed immediately after sacrifice, weighed, and frozen by dry ice. The liver was divided into halves, and each was placed in a 1.5 mL tube and frozen at −80° C. Frozen liver tissue was embedded in paraffin and sliced. […]

Oc1ccc(C=Cc2cc(O)cc(O)c2)cc1 [resveratrol]
weight gain during the test phase [1]: weight gain suppression in the hepatitis model mice could not be improved | changes in ALT value in plasma [2]: the changes were almost the same as the control group | triglyceride level in liver tissue [3]: could not be corrected | intracellular mitochondria number of liver tissue (weight ratio of mitochondrial DNA to genomic DNA) [4]: no changes in intracellular mitochondria number were seen | changes in AST value in plasma [5]: the changes were almost the same as the control group | blank spaces derived from fat droplets in HE stained liver tissue [6]: virtually no effect was seen
